| Compound | melting point [°C] |
| --- | --- |
| Nc1c(Cl)nc(-c2ccccc2)nc1Cl | 140 to 142 |
| Nc1ccc(Cl)c(S(=O)(=O)N2CCCC2)c1 | 116 to 118 |
| Cc1ccc(S(N)(=O)=O)c(C(=O)O)c1 | 271 to 273 |
| NC(=O)CCc1ccc(C(=O)CCl)cc1 | 139 to 141 |
| O=C(O)C1(OCc2ccccc2)CCOCC1 | 69 to 71 |
| Cc1cccc(C(CO)N2CCNCC2)c1 (stereo not drawn) | 81 to 83 |
| CCn1c(C)c(C(=O)O)c2cc(OC)ccc21 | 173 to 175 |
| NC(Cc1cccnc1)=NO | 149 to 151 |
| CC(Cl)C(=O)NC1CCCC1 (stereo not drawn) | 111 to 113 |
| CC(C)c1nc(S(=O)(=O)Cl)c[nH]1 | 162 to 164 |
| O=C(O)CNC(=O)c1cc(Cl)ccn1 | 188 to 190 |
| Nc1ccc(C(=O)NCc2ccccc2)cc1 | 113 to 115 |
| CC(C)(C)OC(=O)Oc1ccc(N)cc1 | 112 to 114 |
| O=C(CCl)c1ccc2c(c1)COC2 | 109 to 111 |
| N#Cc1nnc2ccccc2c1Cl | 179 to 181 |
| Cc1cc(C(=O)O)c(C)n1C1CCCCC1 | 204 to 206 |
| COC(=O)c1sc2ccccc2c1S(=O)(=O)Cl | 98 to 100 |
| CCc1ccc(S(=O)(=O)O)cc1N | 268 to 270 |
| O=C(O)c1cccc(S(=O)(=O)NCc2cccs2)c1 | 223 to 225 |
| CS(=O)(=O)c1cccc(Cl)c1C=O | 102 to 104 |
| O=Cc1cnc(N2CCCC2)nc1 | 118 to 120 |
| O=C(O)CCCNc1ccccc1[N+](=O)[O-] | 115 to 119 |

| Compound | melting point [°C] |
| --- | --- |
| N#Cc1c(-c2ccccc2)nc(S)[nH]c1=O | 327 to 329 |
| Cc1cc(=O)[nH]c(C)c1C(=O)O | 274 to 276 |
| CC1=CC(=O)N(c2ccccc2F)C1=O | 83 to 85 |
| Cc1nc(COc2ccc(C=O)cc2)cs1 | 46 to 48 |
| Cc1ccc(Oc2ccc(N)cc2)cc1 | 118 to 122 |
| NC(=S)NN=Cc1cccs1 | 161 to 163 |
| Cc1cc(C=O)c(C)n1CC(C)C | 43 to 47 |
| O=C(CBr)c1ccc(S(=O)(=O)N2CCOCC2)cc1 | 148 to 150 |
| NS(=O)(=O)CC(=O)O | 119 to 121 |
| COC(=O)c1coc(-c2cccc(C#N)c2)n1 | 183 to 185 |
| Cc1ccoc1-c1nnc(N)s1 | 153 to 155 |
| COc1ccc(N)cc1NS(C)(=O)=O | 125 to 127 |
| COc1ccc(-c2nc(N)sc2C)cc1OC | 185 to 187 |
| O=c1[nH]c2ccc(NCc3cccc(Cl)c3)cc2[nH]1 | 217 to 219 |
| NC(=S)c1ccc(NC(=O)c2ccco2)cc1 | 258 to 260 |
| O=C(c1cccs1)c1cccc2ccccc12 | 65 to 67 |
| CCOC(=O)c1[nH]c(C)c(C(=O)CCl)c1C | 159 to 161 |
| COc1ccc(-n2ccnc2SCC(=O)O)cc1 | 125 to 127 |
| O=C(O)CCCCN1CCOCC1 | 99 to 101 |
| NNC(=O)Cc1ccccc1Cl | 154 to 156 |
| N#Cc1cc(Cl)nc2ccccc12 | 153 to 155 |
| N#CCc1nc(-c2c(F)cccc2F)cs1 | 75 to 77 |

| Compound | melting point [°C] |
| --- | --- |
| Cc1cc(N)n(C)c(=O)c1 | 192 to 194 |
| NCc1cc[nH]n1 | 58 to 60 |
| Cc1oncc1C(=O)NCC(=O)O | 144 to 146 |
| Nc1ncc(Cc2ccc(Cl)cc2Cl)s1 | 109 to 111 |
| O=C(O)c1c[nH]nc1-c1ccc(F)c(Cl)c1 | 282 to 284 |
| COc1ccc(CNc2c([N+](=O)[O-])ncn2C)cc1OC | 196 to 198 |
| CC(=O)c1[nH]c2c(c1C)C(=O)NC(=O)C2 | 354 to 356 |
| Cc1ccccc1C(N)CO (stereo not drawn) | 99 to 101 |
| Cc1ccc(C(C)C)cc1OC(C)C(=O)O (stereo not drawn) | 80 to 82 |
| NC1(c2nn[nH]n2)CCCC1 | 229 to 231 |
| Nc1noc(-c2ccc(Cl)cc2)n1 | 255 to 257 |
| NS(=O)(=O)c1ccccc1OC(F)F | 133 to 135 |
| Cc1csc(Nc2ccccc2)n1 | 74 to 76 |
| NCc1cc2c(cc1OC(F)F)OCO2 | 39 to 41 |
| O=c1[nH]cnc2cc3ccccc3cc12 | 282 to 284 |
| O=C(O)c1cc(-c2cccc(F)c2)no1 | 189 to 191 |
| O=C1CCCCC(N2C(=O)c3ccccc3C2=O)C1 (stereo not drawn) | 119 to 121 |
| CNS(=O)(=O)c1cc(Br)cnc1N | 179 to 181 |
| COc1cccc(C=C(CC(=O)O)c2nc3ccccc3s2)c1 | 153 to 155 |
| NNC(=O)CCc1ccccc1 | 99 to 101 |
| COc1ccccc1NS(=O)(=O)c1ccc(O)c(N)c1 | 167 to 169 |
| Nc1onc(-c2ccc(Br)s2)c1-c1ccc(F)cc1 | 141 to 143 |

| Compound | melting point [°C] |
| --- | --- |
| CN1CCN(c2ccc(F)cc2N)CC1 | 126 to 128 |
| Nc1ccc(Br)c2ccccc12 | 102 to 104 |
| CC(=O)c1oc2ccccc2c1N | 154 to 156 |
| O=C1CN=C(S)N1c1ccccc1 | 253 to 255 |
| O=C(CCl)Nc1nnc(-c2ccco2)o1 | 194 to 196 |
| O=C(CCl)c1ccc(O)cc1O | 108 to 110 |
| NC(=O)c1c(N)sc2c1CCN(Cc1ccccc1)C2 | 76 to 78 |
| Cc1c(C(=O)O)sc2nccn12 | 241 to 243 |
| CC(C)(C)c1nnc(N)o1 | 226 to 228 |
| Nc1cc(C(=O)O)ccc1I | 209 to 211 |
| Nc1ccc(C(=O)CCC(=O)O)cc1 | 184 to 186 |
| O=C(O)c1ccc(CSc2ccc(Cl)cc2)cc1 | 182 to 184 |
| Clc1nc(CN2CCOCC2)nc2scc(-c3ccccc3)c12 | 82 to 84 |
| CC(Cl)C(=O)Nc1ccc(C(C)(C)C)cc1 (stereo not drawn) | 143 to 145 |
| CCNc1ccncc1 | 103 to 105 |
| O=C(CCl)Nc1cccc(C(=O)N2CCSCC2)c1 | 152 to 154 |
| COc1ccc2[nH]c3c(c2c1)CC1(CC3)OCCO1 | 149 to 151 |
| CCC(=O)Nc1ccc(C(=O)CCl)cc1 | 104 to 106 |
| ClCc1cc(Br)c2c(c1)OCO2 | 100 to 102 |

The next lines start with the values.

| melting point [°C] | Compound |
| --- | --- |
| 121 to 123 | Cn1cc(CC(=O)O)cn1 |
| 47 to 49 | Cc1ccc(C(=O)C2CC2)cc1 |
| 99 to 101 | N#Cc1cc([N+](=O)[O-])ccc1S(=O)(=O)Cl |
| 143 to 145 | Clc1ccc(Cl)c(-c2cc[nH]n2)c1 |
| 144 to 146 | CN1CC(=O)N(c2cccc([N+](=O)[O-])c2)C1=O |
| 105 to 107 | Ic1nnc(-c2ccccc2)s1 |
| 120 to 122 | COC(=O)Nc1ccccc1O |
| 142 to 144 | NCC1CC(=O)Nc2ccccc21 (stereo not drawn) |
| 264 to 266 | Nc1nnc(N2CCC(C(=O)O)CC2)[nH]1 |
| 138 to 140 | CCc1nnc(S)n1C |
| 226 to 228 | Cc1cc(C)n2nc(C)c(C(=O)O)c2n1 |
| 213 to 215 | Cc1nccn1-c1ccc(C#N)cn1 |
| 149 to 151 | Nc1nc2ccccc2nc1N1CCCC1 |
| 132 to 134 | COc1cc(CCC(=O)O)ccc1Cl |
| 221 to 223 | Cc1cc(C(=O)O)nn1-c1ccc(F)cc1F |
| 211 to 213 | N#Cc1cc(Cl)ccc1Oc1cccc(C(=O)O)c1 |
| 129 to 131 | CC(O)(C(=O)O)c1ccc(Cl)cc1 (stereo not drawn) |
| 107 to 109 | O=C(NO)C1CCCC1 |
| 199 to 201 | O=C(O)c1c[nH]cc1-c1ccc(F)cc1 |
| 137 to 139 | O=C(O)C1CCCN(S(=O)(=O)c2ccc3ccccc3c2)C1 (stereo not drawn) |
| 112 to 114 | CC(=O)N1CCCCC1CC(=O)O (stereo not drawn) |

| melting point [°C] | Compound |
| --- | --- |
| 135 to 137 | CSCc1cc(C(=O)O)sc1C |
| 196 to 198 | O=C(O)c1ccc(N2CCCCC2)c(S(=O)(=O)N2CCCCC2)c1 |
| 97 to 99 | CC(=O)NCC1CCNCC1 |
| 79 to 81 | COC(=O)C1CN(CC#N)CCO1 (stereo not drawn) |
| 97 to 99 | Cc1ccccc1-c1cc(N)n(C)n1 |
| 93 to 95 | O=C(O)c1cc(Cl)cc(Cl)n1 |
| 137 to 139 | CNc1cc(C(=O)OC)ccc1[N+](=O)[O-] |
| 186 to 188 | COc1ccc(-c2cc(C(=O)O)sc2C)cc1 |
| 84 to 86 | Cc1cc(C)c(S(=O)(=O)N2CCCC2C(=O)O)c(C)c1 (stereo not drawn) |
| 149 to 151 | Nc1ccc(-c2nc3ccccc3s2)cc1 |
| 63 to 65 | NS(=O)(=O)CCCCl |
| 145 to 147 | Cc1cc(N)c(C)cn1 |
| 27 to 29 | CCNC(=O)OCC(F)(F)F |
| 112 to 114 | COCCCOc1ccc(C(=O)O)cc1 |
| 103 to 105 | CS(=O)(=O)c1cccc(Oc2ccc(N)cc2)c1 |
| 108 to 110 | Nc1ccnc(Oc2ccccc2Br)c1 |
| 94 to 96 | CCCN(CCC)C(=O)c1cccc(C(=O)O)c1 |
| 109 to 111 | O=C(O)CCN1CCCC1=O |
| 159 to 161 | Nc1cc(-c2ccccc2)ns1 |
| 41 to 43 | Nc1ccc(Oc2cccc(Cl)c2)cc1 |
| 119 to 121 | NC(=O)C(N)c1ccc(Br)cc1 (stereo not drawn) |

| melting point [°C] | Compound |
| --- | --- |
| 120 to 122 | FC(F)(F)c1ccc2nnc(S)n2c1 |
| 120 to 122 | CCc1ccc(-c2csc(N)n2)cc1 |
| 99 to 101 | O=C(O)C(F)(F)c1ccc(F)cc1 |
| 45 to 46 | COc1cc(C(=O)CBr)ccc1OC(F)F |
| 66 to 68 | Cc1cc(F)c([N+](=O)[O-])cc1S(=O)(=O)Cl |
| 219 to 221 | Nc1ccnn1Cc1ccncc1 |
| 189 to 191 | O=C(O)c1ccc(O)c(S(=O)(=O)Cl)c1 |
| 71 to 73 | N#Cc1ccc(OCc2ccccc2)nc1 |
| 131 to 133 | Cc1noc(N)c1S(N)(=O)=O |
| 259 to 261 | O=C(O)c1n[nH]c2ccccc2c1=O |
| 234 to 236 | O=C(NC(Cc1ccc(O)cc1)C(=O)O)c1cnccn1 (stereo not drawn) |
| 123 to 125 | O=C1CCC(O)(C(F)(F)F)CC1 |
| 119 to 121 | COCc1ccsc1C(=O)O |
| 125 to 127 | O=C(O)CSCC(=O)Nc1ccc(F)cc1 |
| 59 to 61 | Cc1cc(N)n(C2CC3CCC2C3)n1 (stereo not drawn) |
| 95 to 97 | COC(=O)c1sc(C)c(Br)c1O |
| 203 to 205 | CC(C)(C)c1nnn[nH]1 |
| 53 to 55 | Sc1nnc(CCCc2ccccc2)o1 |
| 77 to 81 | Nc1cc(Cl)ccc1NCc1ccccc1 |
| 92 to 102 | O=C(O)CCSc1ccccc1Cl |
| 170 to 172 | Cc1cccc(NC(=S)NN)c1C |
